Reference: PubChem BioAssay (NCI)
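Where inhibition never reached the appropriate level, the endpoint shown equals the highest concentration tested. Otherwise, values were interpolated linearly from a five-concentration, 48-hour dose response in 96-well plates. GI50: concentration for 50% inhibition of growth. Definition used: TGI = concentration required for complete inhibition of growth.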

Tests used:
Test in all cases: NCI-60 cell line screen, 48 h
786-0 renal = tested on: 786-0 renal
A498 renal = tested on: A498 renal
A549 NSCLC = tested on: A549 NSCLC
ACHN renal = tested on: ACHN renal
BT-549 breast = tested on: BT-549 breast
CAKI-1 renal = tested on: CAKI-1 renal
COLO 205 colon = tested on: COLO 205 colon
DU-145 prostate = tested on: DU-145 prostate
EKVX NSCLC = tested on: EKVX NSCLC
HCC-2998 colon = tested on: HCC-2998 colon
HCT-116 colon = tested on: HCT-116 colon
HCT-15 colon = tested on: HCT-15 colon
HL-60(TB) leukemia = tested on: HL-60(TB) leukemia
HOP-62 NSCLC = tested on: HOP-62 NSCLC
HOP-92 NSCLC = tested on: HOP-92 NSCLC
HS 578T breast = tested on: HS 578T breast
HT29 colon = tested on: HT29 colon
IGROV1 ovarian = tested on: IGROV1 ovarian
K-562 leukemia = tested on: K-562 leukemia
KM12 colon = tested on: KM12 colon
LOX IMVI melanoma = tested on: LOX IMVI melanoma
M14 melanoma = tested on: M14 melanoma
MALME-3M melanoma = tested on: MALME-3M melanoma
MCF7 breast = tested on: MCF7 breast
MDA-MB-231 breast = tested on: MDA-MB-231 breast
MDA-MB-435 = tested on: MDA-MB-435
MDA-N = tested on: MDA-N
MOLT-4 leukemia = tested on: MOLT-4 leukemia
NCI-H226 lung = tested on: NCI-H226 lung
NCI-H23 lung = tested on: NCI-H23 lung
NCI-H460 lung = tested on: NCI-H460 lung
NCI-H522 lung = tested on: NCI-H522 lung
NCI/ADR-RES ovarian = tested on: NCI/ADR-RES ovarian
OVCAR-3 ovarian = tested on: OVCAR-3 ovarian
OVCAR-4 ovarian = tested on: OVCAR-4 ovarian
OVCAR-5 ovarian = tested on: OVCAR-5 ovarian
OVCAR-8 ovarian = tested on: OVCAR-8 ovarian
PC-3 prostate = tested on: PC-3 prostate
RPMI-8226 leukemia = tested on: RPMI-8226 leukemia
SF-268 CNS = tested on: SF-268 CNS
SF-295 CNS = tested on: SF-295 CNS
SF-539 CNS = tested on: SF-539 CNS
SK-MEL-2 melanoma = tested on: SK-MEL-2 melanoma
SK-MEL-28 melanoma = tested on: SK-MEL-28 melanoma
SK-MEL-5 melanoma = tested on: SK-MEL-5 melanoma
SK-OV-3 ovarian = tested on: SK-OV-3 ovarian
SN12C renal = tested on: SN12C renal
SNB-19 CNS = tested on: SNB-19 CNS
SNB-75 CNS = tested on: SNB-75 CNS
SW-620 colon = tested on: SW-620 colon
T-47D breast = tested on: T-47D breast
TK-10 renal = tested on: TK-10 renal
U251 CNS = tested on: U251 CNS
UACC-257 melanoma = tested on: UACC-257 melanoma
UACC-62 melanoma = tested on: UACC-62 melanoma
UO-31 renal = tested on: UO-31 renal

## CC(=O)OC1CC(OC2C(O)CC(OC3C(O)CC(OC4CCC5(C)C(CCC6C5CC(O)C5(C)C(C7=CC(=O)OC7)CCC65O)C4)OC3C)OC2C)OC(C)C1OC1OC(CO)C(O)C(O)C1O (stereo not drawn)
786-0 renal
  TGI: 107 nM
A498 renal
  TGI: 413 nM
A549 NSCLC
  TGI: 39.9 nM
ACHN renal
  TGI: 146 nM
BT-549 breast
  TGI: 167 nM
CAKI-1 renal
  TGI: 90.4 nM
COLO 205 colon
  TGI: 394 nM
DU-145 prostate
  TGI: 106 nM
EKVX NSCLC
  TGI: 98.1 nM
HCC-2998 colon
  TGI: 441 nM
HCT-116 colon
  TGI: 139 nM
HCT-15 colon
  TGI: 160 nM
HL-60(TB) leukemia
  TGI: 220 nM
HOP-62 NSCLC
  TGI: 95.6 nM
HOP-92 NSCLC
  TGI: 517 nM
HS 578T breast
  TGI: 525 nM
HT29 colon
  TGI: 252 nM
IGROV1 ovarian
  TGI: 1110 nM
K-562 leukemia
  TGI: > 100000 nM
KM12 colon
  TGI: 519 nM
LOX IMVI melanoma
  TGI: 161 nM
M14 melanoma
  TGI: 343 nM
MALME-3M melanoma
  TGI: 249 nM
MCF7 breast
  TGI: 431 nM
MDA-MB-231 breast
  TGI: 2410 nM
MDA-MB-435
  TGI: 610 nM
MDA-N
  TGI: 526 nM
MOLT-4 leukemia
  TGI: > 100000 nM
NCI-H226 lung
  TGI: 606 nM
NCI-H23 lung
  TGI: 74.4 nM
NCI-H460 lung
  TGI: 67.8 nM
NCI-H522 lung
  TGI: 114 nM
NCI/ADR-RES ovarian
  TGI: 122 nM
OVCAR-3 ovarian
  TGI: 150 nM
OVCAR-4 ovarian
  TGI: 207 nM
OVCAR-5 ovarian
  TGI: 222 nM
OVCAR-8 ovarian
  TGI: 204 nM
PC-3 prostate
  GI50: 52.2 nM
  TGI: 206 nM
RPMI-8226 leukemia
  TGI: 25700 nM
SF-268 CNS
  TGI: 185 nM
SF-295 CNS
  TGI: 179 nM
SF-539 CNS
  TGI: 89.1 nM
SK-MEL-2 melanoma
  TGI: 488 nM
SK-MEL-28 melanoma
  TGI: 979 nM
SK-MEL-5 melanoma
  TGI: 161 nM
SK-OV-3 ovarian
  TGI: 333 nM
SN12C renal
  GI50: 19.4 nM
  TGI: 112 nM
SNB-19 CNS
  TGI: 957 nM
SNB-75 CNS
  TGI: 846 nM
SW-620 colon
  TGI: 252 nM
T-47D breast
  TGI: 633 nM
TK-10 renal
  TGI: 235 nM
U251 CNS
  TGI: 207 nM
UACC-257 melanoma
  TGI: 767 nM
UACC-62 melanoma
  TGI: 404 nM
UO-31 renal
  TGI: 179 nM
